Assay results: patent publication US11999739B2, “Antimicrobials methods of making and using the same” (BIOVERSYS AG, priority 2016, dated 2024)

Tests used:
[1] = Rat five day safety study (bodyweight gain, reticulocyte count change); type: in vivo; details: male Sprague-Dawley juvenile rats, n=5, once daily slow intravenous infusion for 5 days at or near maximum-tolerated dose; for BW Result: bodyweight gain; for Hematology Result: reticulocyte count change
Description: The compounds of the present disclosure were tested for safety in a multi-day dosing study in rat. Key parameters that were monitored are bodyweight gain and hematological changes, particularly changes in reticulocyte counts. Male Sprague-Dawley (CD) juvenile rats were received from Charles River with double jugular vein catheters. For each compound, n=5. […] Bodyweights were recorded daily for the first 5 days (during the dosing period), then 2 to 3 times per week thereafter. Blood was collected via a jugular vein catheter into EDTA anti-coagulated tubes for complete blood counts (CBC) on Days 0 (baseline), 3 and 7. On Day 22, blood was drawn via a cardiac puncture into EDTA coated tubes for final CBC, and serum separator tubes for the complete clinical chemistry profile. The blood that was collected into serum separator tubes was allowed to clot at room temperature for approximately 30 minutes, spun in a centrifuge at 2000 rpm, and the resulting serum was aliquoted. All samples were sent on wet ice to Charles River Labs for analysis.

[2] = tested on: Escherichia coli strain ATCC25922; test: Standard microdilution MIC assay, E. coli; type: cell-based
Outline: (§1)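 Broth microdilution per CLSI M7-A8 guidelines, with reference-strain quality control run in the same design; MIC determined per strain. Activity scored +/− against a 16 micrograms/mL cutoff.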

[3] = tested on: Staphylococcus aureus (S. aureus) 11540 strain; test: Standard microdilution MIC assay, S. aureus; type: cell-based
Outline: as §1

Structure (SMILES): C=C[C@@H](CCNC(=N)CF)NCc1ccc(-n2cc3cc(-c4cc(CCC[C@H](C)N)cc(Cl)c4F)[nH]c3nc2=O)cc1 [Compound 23]
- BW Result [1]: + (a “+” in “BW result” indicates that the rat exhibited a weight gain of 20% or more)
- Hematology Result [1]: + (a “+” in “Hematology result” indicates indicates that the rat exhibited a reticulocyte count change of 65% or less)
- MIC [2]: ≤ 16 µg/mL
- MIC [3]: ≤ 16 µg/mL

Structure (SMILES): C=C[C@@H](N)CCCc1cc(Cl)c(F)c(-c2cc3cn(-c4ccc([C@@H]5CCC[C@@H](CCNC(C)=N)N5)cc4)c(=O)nc3[nH]2)c1 [Compound 36]
- Hematology Result [1]: − (a “−” indicates indicates that the rat exhibited a reticulocyte count change of greater than 65%)
- MIC [2]: ≤ 16 µg/mL
- MIC [3]: ≤ 16 µg/mL

Structure (SMILES): CC(=N)NCC[C@@H]1CNC[C@@H](c2ccc(-n3cc4cc(-c5cc(CCC[C@H](C)N)cc(Cl)c5F)[nH]c4nc3=O)cc2)N1 [Compound 50]
- BW Result [1]: + (a “+” in “BW result” indicates that the rat exhibited a weight gain of 20% or more)
- Hematology Result [1]: + (a “+” in “Hematology result” indicates indicates that the rat exhibited a reticulocyte count change of 65% or less)
- MIC [2]: ≤ 16 µg/mL
- MIC [3]: ≤ 16 µg/mL

Structure (SMILES): CC(=N)NCCCN[C@@H](C)c1ccc(-n2cc3cc(-c4cc(CCC[C@H](C)N)cc(Cl)c4F)[nH]c3nc2=O)cc1 [Compound 110]
- BW Result [1]: − (a “−” indicates that the rat exhibited a weight gain of less than 20%)
- Hematology Result [1]: − (a “−” indicates indicates that the rat exhibited a reticulocyte count change of greater than 65%)
- MIC [2]: ≤ 16 µg/mL
- MIC [3]: ≤ 16 µg/mL

Structure (SMILES): CC(=N)NCC[C@@H]1CCC[C@@H](c2ccc(-n3cc4cc(-c5cc(CCC[C@H](C)N)cc(Cl)c5F)[nH]c4nc3=O)cc2S(C)(=O)=O)N1 [Compound 117]
- BW Result [1]: − (a “−” indicates that the rat exhibited a weight gain of less than 20%)
- Hematology Result [1]: + (a “+” in “Hematology result” indicates indicates that the rat exhibited a reticulocyte count change of 65% or less)
- MIC [2]: ≤ 16 µg/mL
- MIC [3]: ≤ 16 µg/mL

Structure (SMILES): CC(=N)NCC[C@@H](NCc1ccc(-n2cc3cc(-c4cc(CCC[C@H](C)N)cc(Cl)c4F)[nH]c3nc2=O)cc1)C1CC1 [Compound 119]
- BW Result [1]: − (a “−” indicates that the rat exhibited a weight gain of less than 20%)
- Hematology Result [1]: − (a “−” indicates indicates that the rat exhibited a reticulocyte count change of greater than 65%)
- MIC [2]: ≤ 16 µg/mL
- MIC [3]: ≤ 16 µg/mL

Structure (SMILES): CSc1cc(-n2cc3cc(-c4cc(CCC[C@@H](N)C5CC5)cc(Cl)c4F)[nH]c3nc2=O)ccc1[C@@H]1CCC[C@@H](CCNC(C)=N)N1 [Compound 120]
- BW Result [1]: + (a “+” in “BW result” indicates that the rat exhibited a weight gain of 20% or more)
- Hematology Result [1]: + (a “+” in “Hematology result” indicates indicates that the rat exhibited a reticulocyte count change of 65% or less)
- MIC [2]: ≤ 16 µg/mL
- MIC [3]: ≤ 16 µg/mL

Structure (SMILES): CC(=N)NCC[C@@H]1CCC[C@@H](c2ccc(-n3cc4cc(-c5cc(CCC[C@@H](N)C6CC6)cc(Cl)c5F)[nH]c4nc3=O)cc2)N1C [Compound 123]
- BW Result [1]: + (a “+” in “BW result” indicates that the rat exhibited a weight gain of 20% or more)
- Hematology Result [1]: + (a “+” in “Hematology result” indicates indicates that the rat exhibited a reticulocyte count change of 65% or less)
- MIC [2]: ≤ 16 µg/mL
- MIC [3]: ≤ 16 µg/mL

Structure (SMILES): CC(=N)NCC[C@@H]1CCC[C@@H](c2c(F)cc(-n3cc4cc(-c5cc(CCC[C@H](C)N)cc(Cl)c5F)[nH]c4nc3=O)cc2F)N1 [Compound 127]
- BW Result [1]: + (a “+” in “BW result” indicates that the rat exhibited a weight gain of 20% or more)
- Hematology Result [1]: + (a “+” in “Hematology result” indicates indicates that the rat exhibited a reticulocyte count change of 65% or less)
- MIC [2]: ≤ 16 µg/mL
- MIC [3]: ≤ 16 µg/mL

Structure (SMILES): CC(=N)NCC[C@@H]1CCC[C@@H](c2ccc(-n3cc4cc(-c5cc(CCC[C@H](C)N)cc(Cl)c5F)[nH]c4nc3=O)cc2F)N1 [Compound 152]
- BW Result [1]: + (a “+” in “BW result” indicates that the rat exhibited a weight gain of 20% or more)
- Hematology Result [1]: + (a “+” in “Hematology result” indicates indicates that the rat exhibited a reticulocyte count change of 65% or less)
- MIC [2]: ≤ 16 µg/mL
- MIC [3]: ≤ 16 µg/mL

Structure (SMILES): CC(=N)NCC[C@@H]1CCC[C@@H](c2ccc(-n3cc4cc(-c5cc(CCC[C@@H](N)CO)cc(Cl)c5F)[nH]c4nc3=O)cc2F)N1 [Compound 162]
- BW Result [1]: − (a “−” indicates that the rat exhibited a weight gain of less than 20%)
- Hematology Result [1]: − (a “−” indicates indicates that the rat exhibited a reticulocyte count change of greater than 65%)
- MIC [2]: ≤ 16 µg/mL
- MIC [3]: ≤ 16 µg/mL

Structure (SMILES): C=C[C@H](N)CCCc1cc(Cl)c(F)c(-c2cc3cn(-c4ccc([C@@H]5CCC[C@@H](CCNC(C)=N)N5)c(SC)c4)c(=O)nc3[nH]2)c1 [Compound 182]
- BW Result [1]: − (a “−” indicates that the rat exhibited a weight gain of less than 20%)
- Hematology Result [1]: − (a “−” indicates indicates that the rat exhibited a reticulocyte count change of greater than 65%)
- MIC [2]: ≤ 16 µg/mL
- MIC [3]: ≤ 16 µg/mL

Structure (SMILES): COC[C@H](N)CCCc1cc(-c2cc3cn(-c4ccc([C@@H]5CCC[C@@H](CCNC(C)=N)N5)cc4)c(=O)nc3[nH]2)c(F)c(C(F)(F)F)c1 [Compound 190]
- BW Result [1]: − (a “−” indicates that the rat exhibited a weight gain of less than 20%)
- Hematology Result [1]: − (a “−” indicates indicates that the rat exhibited a reticulocyte count change of greater than 65%)
- MIC [2]: ≤ 16 µg/mL
- MIC [3]: ≤ 16 µg/mL

Structure (SMILES): COC[C@H](N)CCCc1cc(-c2cc3cn(-c4ccc([C@@H]5CCC[C@@H](CCNC(C)=N)N5)c(F)c4)c(=O)nc3[nH]2)c(F)c(C(F)(F)F)c1 [Compound 191]
- BW Result [1]: + (a “+” in “BW result” indicates that the rat exhibited a weight gain of 20% or more)
- Hematology Result [1]: + (a “+” in “Hematology result” indicates indicates that the rat exhibited a reticulocyte count change of 65% or less)
- MIC [2]: ≤ 16 µg/mL
- MIC [3]: ≤ 16 µg/mL

Structure (SMILES): COC[C@H](N)CCCc1cc(OC(F)(F)F)c(F)c(-c2cc3cn(-c4ccc([C@@H]5CCC[C@@H](CCNC(C)=N)N5)c(F)c4)c(=O)nc3[nH]2)c1 [Compound 196]
- BW Result [1]: + (a “+” in “BW result” indicates that the rat exhibited a weight gain of 20% or more)
- Hematology Result [1]: + (a “+” in “Hematology result” indicates indicates that the rat exhibited a reticulocyte count change of 65% or less)
- MIC [2]: ≤ 16 µg/mL
- MIC [3]: ≤ 16 µg/mL

Structure (SMILES): COC[C@H](N)CCCc1cc(-c2cc3cn(-c4ccc([C@@H]5CCC[C@@H](CCNC(C)=N)N5)c(SC)c4)c(=O)nc3[nH]2)c(F)c(C(F)(F)F)c1 [Compound 199]
- BW Result [1]: + (a “+” in “BW result” indicates that the rat exhibited a weight gain of 20% or more)
- Hematology Result [1]: − (a “−” indicates indicates that the rat exhibited a reticulocyte count change of greater than 65%)
- MIC [2]: ≤ 16 µg/mL
- MIC [3]: ≤ 16 µg/mL

Structure (SMILES): COC[C@H](N)CCCc1cc(-c2cc3cn(-c4ccc([C@@H]5CCC[C@@H](CCNC(C)=N)N5)cc4)c(=O)nc3[nH]2)cc(C(F)(F)F)c1 [Compound 200]
- BW Result [1]: + (a “+” in “BW result” indicates that the rat exhibited a weight gain of 20% or more)
- Hematology Result [1]: − (a “−” indicates indicates that the rat exhibited a reticulocyte count change of greater than 65%)
- MIC [2]: ≤ 16 µg/mL
- MIC [3]: ≤ 16 µg/mL

Structure (SMILES): CC(=N)NCC[C@@H]1CCC[C@@H](c2ccc(-n3cc4cc(-c5cc(CCC[C@@H](N)C6CC6)cc(C(F)(F)F)c5F)[nH]c4nc3=O)cn2)N1 [Compound 249]
- BW Result [1]: + (a “+” in “BW result” indicates that the rat exhibited a weight gain of 20% or more)
- Hematology Result [1]: + (a “+” in “Hematology result” indicates indicates that the rat exhibited a reticulocyte count change of 65% or less)
- MIC [2]: ≤ 16 µg/mL
- MIC [3]: ≤ 16 µg/mL

Structure (SMILES): CC(=N)N[C@H](C)C[C@@H]1CCC[C@@H](c2ccc(-n3cc4cc(-c5cc(CCC[C@H](C)N)cc(Cl)c5F)[nH]c4nc3=O)cc2)N1 [Compound 254]
- BW Result [1]: + (a “+” in “BW result” indicates that the rat exhibited a weight gain of 20% or more)
- Hematology Result [1]: + (a “+” in “Hematology result” indicates indicates that the rat exhibited a reticulocyte count change of 65% or less)
- MIC [2]: ≤ 16 µg/mL
- MIC [3]: ≤ 16 µg/mL

Structure (SMILES): CC(=N)NCC[C@@H]1CCC[C@@H](c2ccc(-n3cc4cc(-c5cc(CCC[C@H](C)N)cc(Cl)c5F)[nH]c4nc3=O)cc2)N1CCCF [Compound 264]
- BW Result [1]: + (a “+” in “BW result” indicates that the rat exhibited a weight gain of 20% or more)
- Hematology Result [1]: + (a “+” in “Hematology result” indicates indicates that the rat exhibited a reticulocyte count change of 65% or less)
- MIC [2]: ≤ 16 µg/mL
- MIC [3]: ≤ 16 µg/mL

Structure (SMILES): CC(=N)NCC[C@@H]1CCC[C@@H](c2ccc(-n3cc4cc(-c5cc(CCC[C@H](C)N)cc(Cl)c5F)[nH]c4nc3=O)cc2)N1CCCO [Compound 290]
- BW Result [1]: + (a “+” in “BW result” indicates that the rat exhibited a weight gain of 20% or more)
- Hematology Result [1]: + (a “+” in “Hematology result” indicates indicates that the rat exhibited a reticulocyte count change of 65% or less)
- MIC [2]: ≤ 16 µg/mL
- MIC [3]: ≤ 16 µg/mL

Structure (SMILES): CC(=N)NCC[C@@H]1CCC[C@@H](c2ccc(-n3cc4cc(-c5cc(CCC[C@H](C)N)c(C(F)(F)F)cc5F)[nH]c4nc3=O)cc2)N1 [Compound 317]
- BW Result [1]: − (a “−” indicates that the rat exhibited a weight gain of less than 20%)
- Hematology Result [1]: − (a “−” indicates indicates that the rat exhibited a reticulocyte count change of greater than 65%)
- MIC [2]: ≤ 16 µg/mL
- MIC [3]: ≤ 16 µg/mL
